# Test results reported in US7906520B2, “Methods for treating pain” (The General Hospital Corporation, priority 2003, dated 2011).
# Experiments:
# [1] = test system: CFA-induced paw inflammation; test: CFA model of inflammatory pain: Hargreaves test and paw weight; type: in vivo, rat
# Procedure: FIGS. 11A-11E are a series of graphs showing the effect of DHAP on thermal hyperalgesia in the CFA model which is a model for inflammatory pain. […] On the left end of the graph, two doses of DAHP (180 mg/kg i.p.) were injected, the first 30 minutes before injection of CFA into the hindpaw, the second 4 hours after CFA (indicated with arrows D1 and D2). On the right, a single dose (dotted arrow D1) of DAHP (180 mg/kg i.p.) was injected 24 h after induction of paw inflammation without any treatment during the first 24 h following CFA injection. […] In FIGS. 11C-11D, the effects of systemically administered DAHP (180 mg/kg i.p. single dose; 11C) are compared with the effects of a single intrathecal dose (1 mg/kg i.t.; 11D) which was administered via a lumbar spinal catheter. In both cases, treatment was started 24 hours after CFA injection into the hindpaw. Because of slightly different baseline levels (11C compared with 11D) effects of DAHP after i.p. and i.t. treatment are additionally presented as percentage change of paw withdrawal latency (FIG. 11E) to allow for a direct comparison of both routes of administration.
# FIG. 12 is a bar graph showing the increase of the paw weight of the inflamed paw compared with the contralateral paw. Paw weight was determined 48 hours following CFA injection. The increase of the paw weight is a measure for the inflammatory paw edema and therefore allows assessment of paw inflammation.
# FIGS. 15A and 15B show the effect of the sepiapterin reductase inhibitor, N-acetyl-serotonin (NAS) on thermal hyperalgesia in the CFA model. The paw withdrawal latency (PWL) to radiant heat (Hargreaves test) is a measure for the heat sensitivity. NAS treatment (single dose of 50 mg/kg i.p.) was started 24 hours after CFA injection into the hindpaw. Data are presented as percentage change of the PWL compared with the PWL of the non-inflamed contralateral paw. […] Paw weight was determined 48 hours following CFA injection. The increase of the paw weight is a measure for the inflammatory paw edema.
# Hypersensitivity was induced using the CFA model of paw inflammation. In these experiments, BH4 was injected at time “zero” after measurement of baseline paw withdrawal latency.
# SNI model = test: SNI model, L-NAME versus DAHP; type: in vivo; details: DAHP 120 mg/kg i.p. single dose vs L-NAME 25 mg/kg i.p.
# Procedure: In this figure, closed circles represent nNOS knockout mice with DAHP; open circles, nNOS knock out mice with vehicle; closed triangles, wild type mice with DAHP; and open triangles, wild type mice with vehicle. […] In this figure, closed triangles represent L-NAME administration; open circles, L-NAME+DAHP administration; closed circles, DAHP administration; and open triangles, vehicle administration. L-NAME was administered at 25 mg/kg, i.p., single dose, and DAHP was administered at 120 mg/kg, i.p., single dose. The antinociceptive efficacy of this high L-NAME dose is weaker (about 50%) than that of a moderate dose of DAHP.
# [2] = test system: SNI model of neuropathic pain; test: Spared nerve injury (SNI) model of neuropathic pain, von Frey and acetone tests; type: in vivo
# Procedure: FIGS. 8A-8D represent a series of graphs showing the effect of DAHP on nociceptive behavior in the SNI model of neuropathic pain. Figures on the left show the threshold to mechanical stimuli applied with von Frey hairs (von Frey threshold). Figures on the right show the duration of paw licking, shaking and lifting following acetone application to the paw as a measure for cold allodynia. In FIG. 8A, rats were treated with DAHP (180 mg/kg/d i.p.) for three days starting three days after surgery (early treatment). Nociceptive behavior was assessed daily before and after drug injection. In FIG. 8B, the treatment period was extended to five days (180 mg/kg/d i.p.) starting three days after surgery and pain behavior was assessed daily before and after drug injection and once every second day for an additional week after stopping the daily drug injections. In FIG. 8C, treatment with DAHP (180 mg/kg/d i.p. for 5 days) was started 17 days after surgery i.e. in the chronic phase without any treatment in the early phase. Nociceptive behavior was assessed once daily 3 h after drug injection. In FIG. 8D, animals received a continuous spinal infusion of DAHP (6 mg/kg/d) for 14 days. The infusion was started directly after surgery. Nociceptive behavior was assessed once daily.
# FIGS. 16A-16D show the effects of systemic (16A) and intrathecal (16B) treatment with methotrexate (MTX) on the nociceptive behavior in the SNI model of neuropathic pain. […] In FIG. 16A MTX (0.2 mg/kg/d) was injected i.p. once daily starting 5 days after SNI surgery. Nociceptive behavior was assessed once daily three hours after drug injection. In FIG. 16B, MTX was administered as continuous intrathecal infusion (0.1 mg/kg/d for 14 days) starting right after SNI surgery. Nociceptive behavior was assessed once daily. FIGS. 16C and 16D show the body weight gain of animals during systemic (16C) and intrathecal (16D) MTX treatment. Determination of the weight gain was used to assess general well-being and potential toxic effects of MTX.
# In this graph, closed triangles represent vehicle, i.p.; open triangles represent DAHP at 90 mg/kg/day, i.p.; open squares represent DAHP at 180 mg/kg/day, i.p.; and open circles represent DAHP at 270 mg/kg/day, i.p.
# (§1) All procedures were performed in accordance with Massachusetts General Hospital animal care regulations. Adult male Sprague Dawley rats (200-300 g) were anesthetized with halothane. For the sciatic nerve transection (axotomy), the left sciatic nerve was exposed at the mid thigh level, ligated with 3/0 silk, and sectioned distally. The wound was sutured in two layers, and the animals were allowed to recover. For SNI the tibial and peroneal branch of the sciatic nerve were ligated and transected whereas the sural nerve was spared. For CCI, the sciatic nerve was loosely ligated with dexon 4/0 (three ligatures) and for the spinal ligation model the L5 spinal segmental nerve was ligated.
# [3] = test system: CCI model of neuropathic pain; test: Chronic constriction injury (CCI) model of neuropathic pain; type: in vivo, rat; details: 180 mg/kg/d i.p.
# Procedure: FIGS. 9A and 9B are two graphs showing the effect of DAHP on nociceptive behavior in the CCI model of neuropathic pain. […] DAHP treatment (180 mg/kg/d i.p. for 5 days) was started 3 days after surgery and nociceptive behavior was assessed daily before and after drug injection and once every second day after stopping daily drug injections.
# as §1
# [4] = DAHP 6 mg/kg/day continuous intrathecal infusion
# [5] = DAHP 180 mg/kg/day i.p., started 3 or 17 days post-surgery, vs vehicle
structure (smiles),measurement,setting,value
"Nc1cc(O)nc(N)n1 [DAHP, 2,4-Diamino-6-hydroxypyrimidine]",thermal hyperalgesia,[1]; DAHP 1 mg/kg i.t. via lumbar spinal catheter,reduced thermal hyperalgesia
same,paw withdrawal latency of the non-inflamed contralateral paw,[1]; DAHP 180 mg/kg i.p.,no effect
same,thermal hyperalgesia,"[1]; DAHP 180 mg/kg i.p., 30 min before or 24 h after CFA",reduced thermal hyperalgesia
same,inflammatory paw edema (paw weight),"[1]; DAHP treated vs control, 48 hours after CFA",no difference in the degree of paw inflammation
same,antinociceptive effect compared with L-NAME,SNI model,stronger antinociceptive effect
same,cold allodynia,[2]; [4],reduced
same,mechanical allodynia,[2]; [4],reduced
same,"cold pain (cold allodynia, acetone)",[2]; [5],reduction
same,mechanical sensitivity (von Frey threshold),[2]; [5],reduction in mechanical sensitivity
same,"dose-effect relationship, nociceptive response to mechanical or cold stimuli","[2]; DAHP 90, 180, 270 mg/kg/day i.p.",dose-dependent relationship
same,analgesic effects in CCI model,[3],analgesic effects of DAHP were further confirmed
